Experiment in all cases: DTP human tumour cell line panel, 48 h
The test system of test [1] is SNB-75.
Test [2] has as its system PC-3.
Test [3] relates to 786-0.
The test system of test [4] is NCI-H23.
In test [5] the test system is OVCAR-3.
The subject of test [6] is SN12C.
The test system of test [7] is SNB-19.
Test [8] concerns SR.
The subject of test [9] is HCT-15.
In test [10] the test system is RXF 393.
The test system of test [11] is COLO 205.
Test [12] concerns SF-295.
Test [13] relates to HOP-92.
In test [14] the test system is T47D.
The subject of test [15] is UACC-62.
Test [16] deals with RPMI-8226.
Test [17] concerns HL-60.
Test [18] deals with TK-10.
The test system of test [19] is Malme-3M.
For test [20], the system named is SK-OV-3.

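These data come from cells grown in 96-well plates and exposed to compound for 48 hours at five concentrations. Abbreviation: GI50, concentration required for 50% inhibition of growth.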 The source made the active and inactive calls. No stated cut-off is given here; in the data, active = GI50 up to about 1.1 µM and inactive = higher.

Turning to `c1cc(CSSCc2ccncc2)ccn1`, the GI50 in test [1] was 57.1 µM (inactive); in test [2], 21.7 µM (inactive); in test [3], 10.4 µM (inactive); in test [4], 22 µM (inactive); in test [5] it was 33.6 µM (inactive); in test [6] it was 25.2 µM (inactive). Also, the GI50 in test [7] was 34 µM (inactive); in test [8] it was 3.44 µM (inactive); in test [9] it was 19.4 µM; in test [10] it was 23.6 µM (inactive); in test [11], 8.11 µM (inactive); in [12] it was 37.6 µM (inactive). Moreover, the GI50 in test [13] was 25.9 µM (inactive); in [14], > 67.9 µM (inactive); in test [15], 24.9 µM (inactive); in [16], 9.18 µM (inactive); in test [17], 13.7 µM (inactive); in test [18], 13.8 µM (inactive). Besides, the GI50 in test [19] was 24.9 µM (inactive); in [20], 23.1 µM (inactive).
With `O=C(c1ccc(Cl)cc1)c1cnc(Nc2ccccc2Cl)s1`, the GI50 in test [1] was 19.6 µM (inactive); in test [2], 24.4 µM (inactive); in [3], 17.5 µM (inactive); in test [4], 22 µM (inactive); in test [5], 18.3 µM (inactive); in test [6] it was 22.3 µM (inactive). In addition, the GI50 in test [7] is 20.2 µM (inactive); in [8], > 100 µM (inactive); in test [9], 22.8 µM; in test [10], 20.7 µM (inactive); in test [11], 37 µM (inactive); in test [12], 21.5 µM (inactive). Further, the GI50 in [13] was 27.2 µM (inactive); in [14] it was 19.3 µM (inactive); in [15], 21.5 µM (inactive); in test [16], > 100 µM (inactive); in test [17] it was > 100 µM (inactive); in test [18] it was 18.5 µM (inactive). Besides, the GI50 in test [19] was 19 µM (inactive); in test [20] it was 23 µM (inactive).
With `CC1(C)C=[N+]([O-])C(C)(C)N1`, the GI50 in test [1], in test [2], in [3], in test [4], in test [5] and in test [6] was > 100 µM (inactive) in each case. Also, the GI50 was > 100 µM (inactive) in [7]; > 100 µM (inactive) in test [8]; > 100 µM in test [9]; > 100 µM (inactive) in test [10]; > 100 µM (inactive) in [11]; > 100 µM (inactive) in test [12]. For the same compound, the GI50 in [13], in [14], in test [15], in test [16], in test [17] and in test [18] was > 100 µM (inactive) throughout. Moreover, the GI50 in test [19] and in test [20] was > 100 µM (inactive) each time.
For `CCCCCC(=O)Nc1[nH]nnc1C(N)=O`, the GI50 in test [1], in [2], in test [3], in test [4], in [5] and in test [6] was > 100 µM (inactive) each time. Also, the GI50 in test [7] is > 100 µM (inactive); in test [8], > 100 µM (inactive); in [9], > 100 µM; in test [10], > 100 µM (inactive); in [11], > 100 µM (inactive); in test [12], > 100 µM (inactive). In addition, the GI50 was 92.5 µM (inactive) in [13]; > 100 µM (inactive) in test [14]; > 100 µM (inactive) in [15]; > 100 µM (inactive) in test [16]; > 100 µM (inactive) in [17]; > 100 µM (inactive) in test [18]. The GI50 in [19] and in test [20] was > 100 µM (inactive) in each case.
`Clc1ccc(-c2nn3c(COc4cccc(OCc5nnc6sc(-c7ccc(Cl)cc7)nn56)c4)nnc3s2)cc1`: the GI50 in [1] is 23 µM (inactive); in [2], 33.1 µM (inactive); in test [3] it was 15.1 µM (inactive); in test [4], 22.3 µM (inactive); in [5] it was 6.78 µM (inactive); in test [6], 12.6 µM (inactive). Besides, the GI50 in test [7] is 24.6 µM (inactive); in test [8], 11.2 µM (inactive); in [9], 27.5 µM; in test [10] it was 16.1 µM (inactive); in test [11] it was 29.2 µM (inactive); in test [12], 31.3 µM (inactive). In addition, the GI50 in [13] was 30.1 µM (inactive); in test [14], 17.3 µM (inactive); in test [15] it was 23.2 µM (inactive); in test [16], 22.1 µM (inactive); in test [17], 21.5 µM (inactive); in [18] it was 36.8 µM (inactive). For the same compound, the GI50 was 19.2 µM (inactive) in test [19] and 51.3 µM (inactive) in [20].
For the compound `CCOC(=O)CC[C@@H](NC(=O)c1ccc(NCc2ccc3nc(OC)c(OC)nc3c2)cc1)C(=O)OCC`, the GI50 in test [1] is 14.5 µM (inactive); in [2], 56.8 µM (inactive); in test [3], 59.4 µM (inactive); in test [4] it was > 83.2 µM (inactive); in test [5], 17.3 µM (inactive); in [6] it was 52 µM (inactive). In addition, the GI50 was > 100 µM (inactive) in [7]; 25.1 µM (inactive) in [8]; > 87.3 µM in test [9]; 25.5 µM (inactive) in test [10]; 28.6 µM (inactive) in [11]; 70.8 µM (inactive) in [12]. For the same compound, the GI50 in [13] is 11.4 µM (inactive); in test [14], 19.1 µM (inactive); in test [15] it was 15.5 µM (inactive); in test [16], > 94.8 µM (inactive); in [17], 14.8 µM (inactive); in test [18], 60.5 µM (inactive). The figures for the GI50 in [19] and in test [20] were 19.5 µM (inactive) and > 100 µM (inactive), respectively.
As for `CCCCCC(/C=C/C1CCC(=O)C1)OCOCCOC` (stereo not given), the GI50 in test [1] was 11.5 µM (inactive); in test [2], 42.1 µM (inactive); in [3] it was 19.3 µM (inactive); in test [4] it was 55.2 µM (inactive); in test [5] it was 41.4 µM (inactive); in test [6], 57.5 µM (inactive). Also, the GI50 in test [7] was > 53.3 µM (inactive); in test [8], > 46.3 µM (inactive); in test [9], 31.1 µM; in test [10], 34 µM (inactive); in test [11], 48.8 µM (inactive); in test [12], > 58.7 µM (inactive). For the same compound, the GI50 in [13] was 24.2 µM (inactive); in test [14], 52.1 µM (inactive); in [15] it was 36.6 µM (inactive); in test [16] it was 21.6 µM (inactive); in test [17], 42.1 µM (inactive); in test [18], 37.2 µM (inactive). Also, the GI50 in test [19] is > 78.9 µM (inactive); in test [20], > 100 µM (inactive).
As for `O=CN1CCN(C(=O)c2ccco2)C1=S`, the GI50 in test [1] was 12.5 µM (inactive); in test [2] it was 7.29 µM (inactive); in [3], 3.13 µM (inactive); in [4], 15.6 µM (inactive); in [5] it was 4.39 µM (inactive); in test [6], 4.01 µM (inactive). Also, the GI50 in test [7] was 22.1 µM (inactive); in test [8] it was 2.11 µM (inactive); in test [9], 7.83 µM; in test [10] it was 6.64 µM (inactive); in test [11] it was 10.1 µM (inactive); in test [12], 22.5 µM (inactive). In addition, the GI50 is 4.12 µM (inactive) in test [13]; 4.07 µM (inactive) in test [14]; 8.04 µM (inactive) in [15]; 2.24 µM (inactive) in test [16]; 3.46 µM (inactive) in test [17]; 14.3 µM (inactive) in [18]. Besides, the GI50 is 11.3 µM (inactive) in test [19] and 24.3 µM (inactive) in [20].

The term GI50 denotes the concentration giving 50% growth inhibition.

The values above are taken from ChEMBL document CHEMBL1201862, “PubChem BioAssay data set” (2004).
